Like-named read-outs stand apart in the source and are kept apart here.
Assays:
[1] = tested on: HepG2; assay: Cytotoxicity assay (MTT); assay type: cell-based, human
Procedure: (§1) HepG2 (2x10^4 cells per well) were seeded in 96-well flat-bottom culture plates in 100 µL of culture medium (DMEM containing 10% fetal calve serum and 1% penicillin-streptomycin). After 24 hours, the medium was replaced by fresh medium containing test compounds in a final DMSO concentration of 1%. […] Epirubicin and doxorubicin were used as positive controls in serial dilutions starting from 10 µM, and rifampicin was used as a negative control (at 100 µM). Cell viability was determined 48 h after treatment with compounds by adding 0.1 volumes of 3-(4,5-dimethylthiazol-2-yl)-2,5-diphenyltetrazolium bromide (MTT) solution (5 mg/mL sterile PBS) (Sigma, St. Louis, MO) to the wells. After incubating the cells for 30 min at 37 °C (atmosphere containing 5% CO2), medium was removed and MTT crystals were dissolved in 75 µL of a solution containing 10% SDS and 0.5% acetic acid in DMSO. The optical density (OD) of the samples was measured photometrically at 570 nm in a PHERAstar Omega plate reader (BMG labtech, Ortenberg, Germany). Percent viability was calculated by normalizing sample ODs to those of the DMSO controls. Each compound was tested in at least two independent experiments and CC50 values were determined using the nonlinear regression function of GraphPad Prism 10 (GraphPad Software, San Diego, CA, USA).

[2] = Cytotoxicity assay (MTT); assay type: cell-based, human; conditions: human, HepG2 cells; HepG2, 48 h, MTT; mean ± s.d.
Procedure: as §1

[3] = tested on: Dd2b2^WT; assay: [3H]-hypoxanthine incorporation assay; assay type: cell-based, Plasmodium falciparum; conditions: for IC50: Plasmodium falciparum
[4] = tested on: Dd2b2^31-R1.2; assay: [3H]-hypoxanthine incorporation assay; assay type: cell-based, Plasmodium falciparum

## CN1CCN(Cc2ccc(O)c(NC(=O)c3cccc(Oc4cc(C(F)(F)F)ccn4)c3)c2)CC1 [Compound 31, N-(2-hydroxy-5-((4-methylpiperazin-1-yl)methyl)phenyl)-3-((4-(trifluoromethyl)pyridin-2-yl)oxy)benzamide]
[1]; HepG2 CC50 / P. falciparum IC50
  selectivity index (CC50/IC50): 9,487
[1]; Homo sapiens, HepG2, 100 µM, 48 h, MTT
  inhibition at 100 µM: 87 ± 5%
[2]
  CC50 at 48 h: 37000 nM
[3]; Dd2b2^WT
  IC50 fold change relative to Dd2b2^WT: 1.0
[3]; 72 h, read-out: Parent (Dd2b2^WT) IC50
  IC50: 4.5 ± 0.7 nM
[3]; read-out: mean IC50 value ± s.d.
  IC50: 13.3 ± 1.7 nM
[4]; Dd2b2^31-R1.2
  IC50 fold change relative to Dd2b2^WT: 11.9
[4]; Plasmodium falciparum, read-out: mean IC50 value ± s.d.
  IC50: 159 ± 32.9 nM

Reference: paper PMC12668308, “A Novel Antimalarial Agent that Inhibits Protein Synthesis in Plasmodium falciparum” (Angewandte Chemie (International Ed. in English), 2025)
